Data from patent US11541065B2, “Compositions and methods for treating brain injury” (UNM RAINFOREST INNOVATIONS, priority 2018, dated 2023).

Assays:
[1] = Total plasma homocysteine after osmotic pump implantation, rats (HPLC); type: in vivo; settings: male, Wistar, rat, sc, 200 mM solution (2 ml osmotic pump, flow rate 10 μl/hr), subcutaneous osmotic pump with 200 mM L-homocysteine
Method: L-homocysteine (200 mM) was freshly prepared by alkali hydrolysis of L-homocysteine thiolactone hydrochloride followed by neutralization, and maintained in 0.02 mM of N-Tris(hydroxymethyl)methyl-2-aminoethanesulfonic acid buffer pH 7.4 as previously described (Poddar et al., 2001, Circulation, 103:2717-2723). Osmotic pumps (Alzet, 2ML1, flow rate 10 μl/hr; Durect Corp., Cupertino, Calif.) containing either 2 ml of freshly prepared 200 mM L-homocysteine (for hyperhomocysteinemia) or normal saline (for control) were surgically implanted subcutaneously on the back and posterior to the scapulae of male Wistar rats under anesthesia (2% isoflurane in medical grade oxygen). The incision was closed after implantation and the rats were allowed to recover in their cage. For both WT and GluN2A-KO mice, osmotic pumps (Alzet, 2001, flow rate 1 μl/hr; Durect Corp., Cupertino, Calif.) containing either 200 μl of freshly prepared 200 mM L-homocysteine (for hyperhomocysteinemia) or normal saline (for control) were implanted similarly.
Blood was obtained from rats (retro-orbital) and mice (cardiac puncture) under anesthesia with 2% isoflurane in medical grade oxygen, before installation of osmotic pumps (0 day) and at various time points after installation of osmotic pumps (rats: day 3, day 5, and day 7; mice: day 3 and day 5). Blood was collected in standardized VACUTAINER venous blood collection EDTA-tubes (ThermoFisher Scientific, Inc., Waltham, Mass.) and centrifuged at 3,500 rpm for 15 minutes. The plasma obtained was analyzed for total plasma homocysteine levels using high performance liquid chromatography with post-column fluorescence detection as previously described (Gilfix et al., 1997, Clin Chem 43:687-688; Jacobsen et al., 1994, Clin Chem 40:873-881; Miller et al., 2013, Am J Clin Nutr 97:827-834).

COX2 = COX2 protein level in WT and GluN2A-KO mouse neuronal cultures (immunoblot); type: cell-based, mice; settings: L-homocysteine 50 μM, four hours
Method: Equal protein from total cell lysates obtained from rat and mice neuronal cultures were resolved in 7.5% SDS-PAGE, and subjected to immunoblotting procedure as described earlier (Poddar and Paul, 2009, J Neurochem 110:1095-1106). Blots were analyzed with antibodies as described in each experiment. All primary antibodies (anti-COX2, anti-B-tubulin) and secondary-horse radish peroxidase conjugated antibody concentrations were used according to recommendations provided by the manufacturer. Signals from immune complexes in the blots were developed using West Pico supersignal chemiluminescence reagents and then captured on X-ray films. Densitometric analysis of the images was performed using the Image J software.
Rat and mice neuronal cultures were washed with PBS (pH 7.4), containing sodium pyrophosphate and sodium vanadate as phosphatase inhibitors, and harvested in SDS sample buffer (Laemmli, 1970, Nature 227:680-685). Equal protein from total cell lysates, estimated using BCA kit, was resolved by SDS-PAGE (7.5%) followed by western blotting on PVDF membranes. Immunoblot analysis was performed by first blocking with 5% non-fat dry milk for 1 h at room temperature followed by incubation with either COX2 immunoblot analysis (Poddar and Paul, 2009, J Neurochem 110:1095-1106) as described in each experiment. […]

[2] = tested on: hyperhomocysteinemic rats subjected to MCAO; assay: CatWalk gait analysis after MCAO; type: in vivo, male Wistar rats; settings: HHcy rats, 7 days after MCAO, NVP-AAM077 1.2 mg/kg
Method: (§1) All rats were subjected to a battery of behavioral tests on day 7 (CatWalk), day 8 (cylinder and rotarod tests) and day 9 (adhesive test) after MCAO to evaluate normal gait, motor coordination and sensory motor functions. Habituation and training (3 days) was performed for one week before MCAO. The first two trainings days were before osmotic pump implantation and the third training day was after pump implantation. An experienced observer blinded to the experimental conditions evaluated all behavioral parameters.
Catwalk: An automated quantitative gait analysis system (Catwalk XT 10.5, Noldus) was used to assess deficits in normal gait in the control, hyperhomocysteinemic and NVP-AAM077 treated hyperhomocysteinemic rats as described earlier (Parkkinen et a., 2013, Stroke Res Treat 2013:410972; Wang et al., 2008, J Cereb Blood Flow Metab 28:1936-50). Briefly, rats were trained to walk on a glass platform or walkway (1.3 m long and 90 mm wide) with a fluorescent light reflected internally in the glass floor as the rats cross the walkway, scattering at points where the paws touch the glass. […] The camera recorded three such complete or successful runs across the walkway and the average of the three runs is reported. An experienced observer, blinded to the experimental group, labeled each paw on the recorded video and paw-related parameters were analyzed. […]

[3] = tested on: hyperhomocysteinemic rats subjected to MCAO; assay: Adhesive removal test after MCAO; type: in vivo, male Wistar rats; settings: HHcy rats, 9 days after MCAO, NVP-AAM077 1.2 mg/kg
Method: as §1
Adhesive removal test: Sensorimotor deficits following stroke was assessed by performing the adhesive removal test in control, hyperhomocysteinemic and NVP-AAM077 treated hyperhomocysteinemic rats. A small adhesive patch (7 mm×3 mm) was applied to the contralateral forepaw of each rat with equal pressure and the time taken to notice the presence of the patch (time to contact) and to remove it (time to remove) was recorded (Bouet et al., 2009, Nat Protoc 4:1560-1564). The time taken to notice the patch was recorded from the moment of placing the patch until the paw was shaken or touched by mouth. The time taken to remove the patch was recorded from the moment the mouth touched the paw to the time the patch was removed. The trial ended after the adhesive patch was removed or a maximum latency of three minutes. […]

Compound	concentration at 3 day ([1]; day 3, basal 8.8±0.76 μM, read-out: total plasma homocysteine level) [µM]	concentration at 5 day ([1]; day 5, read-out: total plasma homocysteine level) [µM]	concentration at 7 day ([1]; day 7, read-out: total plasma homocysteine level) [µM]	COX2 protein level (COX2; GluN2A-KO mice cultures)	COX2 protein level (COX2; WT mice cultures)	print position of the affected side ([2]; untreated HHcy 0.72±0.15) [cm]	print area of the affected forepaw ([2]; untreated HHcy 1.06±0.097) [cm^2]	time to contact adhesive tape, contralateral forepaw ([3]; untreated HHcy 76.82±5.45 s) [s]	time to remove adhesive tape, contralateral forepaw ([3]; untreated HHcy 127.86±7.29 s) [s]
N[C@@H](CCS)C(=O)O [L-homocysteine]	23.2 ± 0.52	23.6 ± 0.57	20.5 ± 0.88	fails to augment COX2 protein expression	leads to increase in COX2 protein level				
C[C@H](NC(c1cccc2[nH]c(=O)c(=O)[nH]c12)P(=O)(O)O)c1ccc(Br)cc1 (stereo partly drawn) [NVP-AAM077, ({[(1S)-1-(4-bromophenyl)ethyl]amino}-(2,3-dioxo-1,4-dihydroquinoxalin-5-yl)methyl)phosphonic acid]						1.37±0.097	1.41±0.092	31.18 ± 5.68	44.24 ± 7.59
